Like-named read-outs stand apart in the source and are kept apart here.
Columns and labels:
KRAS A146T = molecular target: T1, KRAS A146T (Homo sapiens, UniProt P01116, A146T); assay: Cellular KRAS:RAF Disruption Assay (NanoBRET), KRAS A146T; assay type: cell-based; conditions: HEK293 T cells co-expressing RAF1 and KRAS A146T, 24 hours; read-out: RAS::RAF binding via NanoBRET IC50, KRAS A146T
T1 construct: expressed in transfected cells
Procedure: (§1) Cellular KRAS:RAF Disruption Assay
(§2) Stable cell lines (HEK293 T) were generated to co-express RAF1 and mutant or wild type KRAS, as indicated, using the BiBRET vector (Promega). Engineered cell lines were suspended in media (OptiMEM, […]), plated in 384-well plates (8000 cells/well), and allowed to rest for 1.5 hours. Cells were treated with compounds for 24 hours, and NanoBRET NanoGlo substrate (Promega) was added per the manufacturer's instructions.

KRAS G13D = molecular target: T2, KRAS G13D (Homo sapiens, UniProt P01116, G13D); assay: Cellular KRAS:RAF Disruption Assay (NanoBRET), KRAS G13D; assay type: cell-based; conditions: HEK293 T cells co-expressing RAF1 and KRAS G13D, 24 hours; read-out: RAS::RAF binding via NanoBRET IC50, KRAS G13D
T2 construct: expressed in transfected cells
T2 sequence (P01116 1-188 isoform P01116-2 G13D): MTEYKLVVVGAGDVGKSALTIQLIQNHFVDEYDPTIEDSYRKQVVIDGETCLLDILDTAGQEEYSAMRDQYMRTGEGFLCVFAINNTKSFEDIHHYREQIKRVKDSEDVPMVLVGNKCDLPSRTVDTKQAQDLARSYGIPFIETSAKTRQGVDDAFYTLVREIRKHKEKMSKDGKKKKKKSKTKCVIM
Procedure: as §1, §2

KRAS G12V = molecular target: T3, KRAS G12V (Homo sapiens, UniProt P01116, G12V); assay: Cellular KRAS:RAF Disruption Assay (NanoBRET), KRAS G12V; assay type: cell-based; conditions: HEK293 T cells co-expressing RAF1 and KRAS G12V, 24 hours; read-out: RAS::RAF binding via NanoBRET IC50, KRAS G12V
T3 construct: expressed in transfected cells
T3 sequence (P01116 1-188 isoform P01116-2 G12V): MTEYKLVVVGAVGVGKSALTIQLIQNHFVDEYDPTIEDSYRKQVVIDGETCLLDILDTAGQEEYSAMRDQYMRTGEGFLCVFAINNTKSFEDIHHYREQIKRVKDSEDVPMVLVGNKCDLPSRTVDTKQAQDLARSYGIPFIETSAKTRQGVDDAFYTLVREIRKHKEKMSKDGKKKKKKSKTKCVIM
Procedure: as §1, §2

KRAS G12A = molecular target: T4, KRAS G12A (Homo sapiens, UniProt P01116, G12A); assay: Cellular KRAS:RAF Disruption Assay (NanoBRET), KRAS G12A; assay type: cell-based; conditions: HEK293 T cells co-expressing RAF1 and KRAS G12A, 24 hours; read-out: RAS::RAF binding via NanoBRET IC50, KRAS G12A
T4 construct: expressed in transfected cells
T4 sequence (P01116 1-188 isoform P01116-2 G12A): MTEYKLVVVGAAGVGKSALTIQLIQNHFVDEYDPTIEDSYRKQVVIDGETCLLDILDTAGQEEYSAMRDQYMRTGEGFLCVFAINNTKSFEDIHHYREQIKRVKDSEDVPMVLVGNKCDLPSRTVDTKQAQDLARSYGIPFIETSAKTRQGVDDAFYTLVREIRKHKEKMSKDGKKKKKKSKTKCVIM
Procedure: as §1, §2

KRAS WT = molecular target: T5, KRAS WT (Homo sapiens, UniProt P01116); assay: Cellular KRAS:RAF Disruption Assay (NanoBRET), KRAS WT; assay type: cell-based; conditions: HEK293 T cells co-expressing RAF1 and wild type KRAS, 24 hours; read-out: RAS::RAF binding via NanoBRET IC50, KRAS WT
T5 construct: expressed in transfected cells
T5 sequence (P01116 1-188 isoform P01116-2): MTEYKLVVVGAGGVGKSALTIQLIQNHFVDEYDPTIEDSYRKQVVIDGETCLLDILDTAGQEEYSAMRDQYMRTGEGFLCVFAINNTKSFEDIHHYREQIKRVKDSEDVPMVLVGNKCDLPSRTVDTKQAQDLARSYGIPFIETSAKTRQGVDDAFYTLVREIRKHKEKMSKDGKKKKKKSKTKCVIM
Procedure: as §1, §2

KRAS G12R = molecular target: T6, KRAS G12R (Homo sapiens, UniProt P01116, G12R); assay: Cellular KRAS:RAF Disruption Assay (NanoBRET), KRAS G12R; assay type: cell-based; conditions: HEK293 T cells co-expressing RAF1 and KRAS G12R, 24 hours; read-out: RAS::RAF binding via NanoBRET IC50, KRAS G12R
T6 construct: expressed in transfected cells
T6 sequence (P01116 1-188 isoform P01116-2 G12R): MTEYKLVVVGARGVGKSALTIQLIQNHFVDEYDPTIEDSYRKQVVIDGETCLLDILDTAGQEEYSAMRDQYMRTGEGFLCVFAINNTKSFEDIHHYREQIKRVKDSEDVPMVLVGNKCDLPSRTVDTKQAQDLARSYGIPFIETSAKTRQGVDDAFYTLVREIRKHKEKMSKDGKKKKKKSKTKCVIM
Procedure: as §1, §2

KRAS Q61R = molecular target: T7, KRAS Q61R (Homo sapiens, UniProt P01116, Q61R); assay: Cellular KRAS:RAF Disruption Assay (NanoBRET), KRAS Q61R; assay type: cell-based; conditions: HEK293 T cells co-expressing RAF1 and KRAS Q61R, 24 hours; read-out: RAS::RAF binding via NanoBRET IC50, KRAS Q61R
T7 construct: expressed in transfected cells
T7 sequence (P01116 1-188 isoform P01116-2 Q61R): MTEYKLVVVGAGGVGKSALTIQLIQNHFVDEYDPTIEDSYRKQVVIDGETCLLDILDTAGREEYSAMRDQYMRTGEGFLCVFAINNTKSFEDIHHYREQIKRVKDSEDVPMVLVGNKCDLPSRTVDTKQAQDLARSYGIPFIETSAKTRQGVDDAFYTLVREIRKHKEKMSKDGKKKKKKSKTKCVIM
Procedure: as §1, §2

KRAS Q61H = molecular target: T8, KRAS Q61H (Homo sapiens, UniProt P01116, Q61H); assay: Cellular KRAS:RAF Disruption Assay (NanoBRET), KRAS Q61H; assay type: cell-based; conditions: HEK293 T cells co-expressing RAF1 and KRAS Q61H, 24 hours; read-out: RAS::RAF binding via NanoBRET IC50, KRAS Q61H
T8 construct: expressed in transfected cells
T8 sequence (P01116 1-188 isoform P01116-2 Q61H): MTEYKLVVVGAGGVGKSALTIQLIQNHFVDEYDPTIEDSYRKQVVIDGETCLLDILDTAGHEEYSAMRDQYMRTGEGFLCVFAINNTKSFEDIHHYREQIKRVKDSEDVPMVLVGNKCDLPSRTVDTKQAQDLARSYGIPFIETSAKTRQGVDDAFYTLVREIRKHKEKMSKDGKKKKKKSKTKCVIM
Procedure: as §1, §2

KRAS G12C = molecular target: T9, KRAS G12C (Homo sapiens, UniProt P01116, G12C); assay: Cellular KRAS:RAF Disruption Assay (NanoBRET), KRAS G12C; assay type: cell-based; conditions: HEK293 T cells co-expressing RAF1 and KRAS G12C, 24 hours; read-out: RAS::RAF binding via NanoBRET IC50, KRAS G12C
T9 construct: expressed in transfected cells
T9 sequence (P01116 1-188 isoform P01116-2 G12C): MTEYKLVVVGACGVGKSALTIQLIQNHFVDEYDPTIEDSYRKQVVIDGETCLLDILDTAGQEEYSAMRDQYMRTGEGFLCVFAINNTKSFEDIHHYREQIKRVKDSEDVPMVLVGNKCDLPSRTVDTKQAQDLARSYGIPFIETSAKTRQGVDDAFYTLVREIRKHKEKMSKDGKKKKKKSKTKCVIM
Procedure: as §1, §2

KRAS G12S = molecular target: T10, KRAS G12S (Homo sapiens, UniProt P01116, G12S); assay: Cellular KRAS:RAF Disruption Assay (NanoBRET), KRAS G12S; assay type: cell-based; conditions: HEK293 T cells co-expressing RAF1 and KRAS G12S, 24 hours; read-out: RAS::RAF binding via NanoBRET IC50, KRAS G12S
T10 construct: expressed in transfected cells
T10 sequence (P01116 1-188 isoform P01116-2 G12S): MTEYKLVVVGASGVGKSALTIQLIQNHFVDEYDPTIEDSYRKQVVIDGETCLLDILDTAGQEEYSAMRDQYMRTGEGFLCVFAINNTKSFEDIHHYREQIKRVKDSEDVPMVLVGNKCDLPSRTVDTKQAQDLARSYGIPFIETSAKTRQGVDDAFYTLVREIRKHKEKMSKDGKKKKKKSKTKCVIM
Procedure: as §1, §2

KRAS G12D [1] = molecular target: T11, KRAS G12D (Homo sapiens, UniProt P01116, G12D); assay: biochemical
T11 sequence (P01116 1-188 isoform P01116-2 G12D): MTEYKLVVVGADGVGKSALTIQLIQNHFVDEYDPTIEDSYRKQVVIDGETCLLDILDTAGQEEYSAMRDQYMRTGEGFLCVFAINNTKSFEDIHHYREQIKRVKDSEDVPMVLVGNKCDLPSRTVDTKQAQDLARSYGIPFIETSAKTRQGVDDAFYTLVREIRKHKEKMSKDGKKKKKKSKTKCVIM

KRAS G12D [2] = molecular target: T11, KRAS G12D; assay: biochemical; remark: listed apart in the source

T1 sequence (P01116 1-188 isoform P01116-2 A146T): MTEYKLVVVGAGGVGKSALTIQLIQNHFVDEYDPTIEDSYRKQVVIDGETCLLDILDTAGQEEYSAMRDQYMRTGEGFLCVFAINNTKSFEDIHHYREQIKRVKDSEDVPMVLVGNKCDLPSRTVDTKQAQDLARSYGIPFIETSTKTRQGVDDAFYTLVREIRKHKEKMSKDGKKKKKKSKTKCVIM

SMILES | IC50 (KRAS A146T) [nM] | IC50 (KRAS G13D) [nM] | IC50 (KRAS G12V) [nM] | IC50 (KRAS G12A) [nM] | IC50 (KRAS WT) [nM] | IC50 (KRAS G12R) [nM] | IC50 (KRAS Q61R) [nM] | IC50 (KRAS Q61H) [nM] | IC50 (KRAS G12C) [nM] | IC50 (KRAS G12S) [nM] | IC50 (KRAS G12D [1]) [nM] | IC50 (KRAS G12D [2]) [nM]
C#Cc1c(F)ccc2cc(O)cc(-c3ncc4c(N5C6COCC5C6)nc(OC[C@@]56CCCN5C[C@H](F)C6)nc4c3F)c12 [Example 1-35, 4-(2-{[(2R,7aS)-2-fluoro-hexahydro-1H-pyrrolizin-7a-yl]methoxy}-8-fluoro-4-{3-oxa-6-azabicyclo[3.1.1]heptan-6-yl}pyrido[4,3-d]pyrimidin-7-yl)-5-ethynyl-6-fluoronaphthalen-2-ol] | 40 | 22 | 32 | 10 | 13 | 4230 | > 10000 | 31 | 12 | 11 |  | 
C#Cc1c(F)ccc2cc(O)cc(-c3ncc4c(N5CC6COC(C6)C5)nc(OC[C@@]56CCCN5C[C@H](F)C6)nc4c3F)c12 (stereo partly drawn) [Example 1-90, 4-(2-{[(2R,7aS)-2-fluoro-hexahydro-1H-pyrrolizin-7a-yl]methoxy}-8-fluoro-4-{6-oxa-3-azabicyclo [3.2.1]octan-3-yl}pyrido[4,3-d]pyrimidin-7-yl)-5-ethynyl-6-fluoronaphthalen-2-ol] |  |  | 197 | 19.5 | 11.9 |  |  |  | 41.6 |  |  | 
C#Cc1c(F)ccc2cc(O)cc(-c3ncc4c(N5CCCC(C)(O)C5)nc(OC[C@]56CCC[C@H]5N(C)CCC6)nc4c3F)c12 (single isomer, unassigned) [Example 1-89] |  |  | 20.1 | 4.8 | 8.5 |  |  |  | 9.3 |  |  | 
C#Cc1c(F)ccc2cc(O)cc(-c3ncc4c(N5CCOCC(C)(O)C5)nc(OC[C@]56CCC[C@H]5N(C)CCC6)nc4c3F)c12 (stereo partly drawn) [Example 1-108, 4-(2-{[(4aS,7aR)-1-methyl-octahydro-1H-cyclopenta[b]pyridin-4a-yl]methoxy}-7-(8-ethynyl-7-fluoro-3-hydroxynaphthalen-1-yl)-8-fluoropyrido[4,3-d]pyrimidin-4-yl)-6-methyl-1,4-oxazepan-6-ol] |  |  | 140 | 13.2 | 17.2 |  |  |  | 18.8 |  |  | 
C#Cc1c(F)ccc2cc(O)cc(-c3ncc4c(N5CCOC6CC65)nc(OC[C@@]56CCCN5C[C@H](F)C6)nc4c3F)c12 (stereo partly drawn) [Example 1-100, 4-(2-{[(2R,7aS)-2-fluoro-hexahydro-1H-pyrrolizin-7a-yl]methoxy}-8-fluoro-4-{2-oxa-5-azabicyclo[4.1.0]heptan-5-yl}pyrido[4,3-d]pyrimidin-7-yl)-5-ethynyl-6-fluoronaphthalen-2-ol] |  |  | 118 | 4.6 | 12.3 |  |  |  | 12.9 |  |  | 
C#Cc1c(F)ccc2cc(O)cc(-c3ncc4c(N5CCOC6CC65)nc(OC[C@]56CCC[C@H]5N(C)CCC6)nc4c3F)c12 (single isomer, unassigned) [Example 1-99] |  |  | 126 | 12 | 3 |  |  |  | 11 |  |  | 
C#Cc1c(F)ccc2cc(O)cc(-c3ncc4c(N5CCOCC5)nc(OC[C@@]56CCCN5C[C@H](F)C6)nc4c3F)c12 [Example 1-1, 4-(2-{[(2R,7aS)-2-fluoro-hexahydro-1H-pyrrolizin-7a-yl]methoxy}-8-fluoro-4-(morpholin-4-yl)pyrido[4,3-d]pyrimidin-7-yl)-5-ethynyl-6-fluoronaphthalen-2-ol] | 76 | 45 | 199 | 16 | 6 | 5300 | > 10000 | 99 | 25 | 29 |  | 

Second part, the compound after the results:

IC50 (KRAS A146T) [nM] | IC50 (KRAS G13D) [nM] | IC50 (KRAS G12V) [nM] | IC50 (KRAS G12A) [nM] | IC50 (KRAS WT) [nM] | IC50 (KRAS G12R) [nM] | IC50 (KRAS Q61R) [nM] | IC50 (KRAS Q61H) [nM] | IC50 (KRAS G12C) [nM] | IC50 (KRAS G12S) [nM] | IC50 (KRAS G12D [1]) [nM] | IC50 (KRAS G12D [2]) [nM] | SMILES
17 | 8 | 26 | 3 | 2 | 204 | 2290 | 16 | 5 | 6 |  |  | C#Cc1c(F)ccc2cc(O)cc(-c3ccc4c(N5CCCOCC5)nc(OC[C@@]56CCCN5C[C@H](F)C6)nc4c3F)c12 [Example 2-2, 4-(2-{[(2R,7aS)-2-fluoro-hexahydro-1H-pyrrolizin-7a-yl]methoxy}-8-fluoro-4-(1,4-oxazepan-4-yl)quinazolin-7-yl)-5-ethynyl-6-fluoronaphthalen-2-ol]
577 | 407 | > 5000 | 226 | 242 | > 5000 | > 5000 | 504 | 346 | 422 | 7 | < 2 | C#Cc1c(F)ccc2cc(O)cc(-c3ccc4c(N5CC6CCC(C5)N6C(=O)C(F)(F)F)nc(OC[C@]56CCC[C@H]5N(C)CCC6)nc4c3F)c12 [Example 7-7, 1-[3-(2-{[(4aS,7aR)-1-methyl-octahydro-1H-cyclopenta[b]pyridin-4a-yl]methoxy}-7-(8-ethynyl-7-fluoro-3-hydroxynaphthalen-1-yl)-8-fluoroquinazolin-4-yl)-3,8-diazabicyclo[3.2.1]octan-8-yl]-2,2,2-trifluoroethan-1-one]
315 | 199 | 680 | 144 | 40 | 7510 | > 10000 | 474 | 367 | 313 |  |  | C#Cc1c(F)ccc2cc(O)cc(-c3ccc4c(N5CC6CCC(C5)N6C(=O)C(F)(F)F)nc(OC[C@@]56CCCN5C[C@H](F)C6)nc4c3F)c12 [Example 7-3, 1-[3-(2-{[(2R,7aS)-2-fluoro-hexahydro-1H-pyrrolizin-7a-yl]methoxy}-7-(8-ethynyl-7-fluoro-3-hydroxynaphthalen-1-yl)-8-fluoroquinazolin-4-yl)-3,8-diazabicyclo[3.2.1]octan-8-yl]-2,2,2-trifluoroethan-1-one]
 |  | 2510 | 881 | 238 |  |  |  | 826 |  |  |  | C#Cc1c(F)ccc2cc(O)cc(-c3ccc4c(N5C[C@@H]6C[C@H]5C(=O)N6)nc(OC[C@]56CCC[C@H]5N(C)CCC6)nc4c3F)c12 [Example 5-1, (1S,4S)-5-(2-{[(4aS,7aR)-1-methyl-octahydro-1H-cyclopenta[b]pyridin-4a-yl]methoxy}-7-(8-ethynyl-7-fluoro-3-hydroxynaphthalen-1-yl)-8-fluoroquinazolin-4-yl)-2,5-diazabicyclo[2.2.1]heptan-3-one]
81 | 49 | 172 | 18 | 11 | 1080 | > 5000 | 72 | 24 | 39 |  |  | C#Cc1c(F)ccc2cc(O)cc(-c3ccc4c(N5CCCOCC5)nc(OC[C@]56CCC[C@H]5N(C)CCC6)nc4c3F)c12 [Example 2-3, 4-(2-{[(4aS,7aR)-1-methyl-octahydro-1H-cyclopenta[b]pyridin-4a-yl]methoxy}-8-fluoro-4-(1,4-oxazepan-4-yl)quinazolin-7-yl)-5-ethynyl-6-fluoronaphthalen-2-ol]
 |  | 40.5 | 9 | 3.6 |  |  |  | 12.8 |  |  |  | C#Cc1c(F)ccc2cc(O)cc(-c3ccc4c(N5CCCC(C)(O)C5)nc(OC[C@]56CCC[C@H]5N(C)CCC6)nc4c3F)c12 (stereo partly drawn) [Example 2-72, 1-(2-{[(4aS,7aR)-1-methyl-octahydro-1H-cyclopenta[b]pyridin-4a-yl]methoxy}-7-(8-ethynyl-7-fluoro-3-hydroxynaphthalen-1-yl)-8-fluoroquinazolin-4-yl)-3-methylpiperidin-3-ol]
